Experimental data published in patent US20070031511A1, “Method of treatment” (priority 2003, published 2007).
Where two headings read alike, the source gives them in different places. Values belong to the compound of their own block, whether it stands above or below them. Where a SMILES comes first, the peptide text is derived from it. Where no end group is shown, it is not given here. [ ]: non-standard residue; d: D form. pGlu = O=C1CC[C@@H](C(=O)O)N1

Experiments:
hepatoma cell lines = conditions: Kicic et al, 2001; cited from earlier work
CCK-2 receptor [1] = biological target: T1, CCK-2 receptor (Homo sapiens, UniProt P32239); experiment: Gamide-stimulated inositol phosphate production in COS-7 cells transfected with the CCK-2 receptor; type: cell-based; design: COS-7 cells transiently transfected with CCK-2 receptor cDNA; expressed in transfected cells; host or cells: COS-7; conditions: for Stimulation of inositol phosphate production: 10 nM peptide
T1 sequence (P32239 1-447): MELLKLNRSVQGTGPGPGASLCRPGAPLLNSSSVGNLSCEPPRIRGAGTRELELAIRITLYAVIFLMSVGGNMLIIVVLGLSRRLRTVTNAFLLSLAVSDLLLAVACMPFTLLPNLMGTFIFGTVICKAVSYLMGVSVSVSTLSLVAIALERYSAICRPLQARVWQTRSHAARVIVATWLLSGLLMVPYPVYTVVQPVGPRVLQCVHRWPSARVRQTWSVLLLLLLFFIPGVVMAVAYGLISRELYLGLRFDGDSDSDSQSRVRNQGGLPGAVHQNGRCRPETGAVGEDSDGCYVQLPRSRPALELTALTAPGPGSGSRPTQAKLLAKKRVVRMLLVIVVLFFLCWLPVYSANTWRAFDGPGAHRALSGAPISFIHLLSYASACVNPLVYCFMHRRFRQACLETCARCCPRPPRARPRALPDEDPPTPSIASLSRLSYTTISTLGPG
Method: (§1) Intracellular inositol phosphate production was determined as described previously (Qian et al, 1993). IMGE-5 cells (10^5 cells/ml) were plated in 24-multiwell culture plates in DMEM supplemented with 10% FBS, 200 IU/ml penicillin and 200 μg/ml streptomycin. 24 h later, cells were incubated with DMEM supplemented with antibiotics and Myo-[2-^3H]inositol (2.5 μCi/well) and shifted to 39° C. for 16 h. Cells were then washed with pre-warmed DMEM and incubated (20-30 minutes, 37° C.) with DMEM supplemented with 20 mM LiCl. Loaded cells were then washed in 1 ml of IP buffer (135 mM NaCl, 20 mM N-(2-hydroxyethyl)piperazine-N′-(2-ethanesulfonic acid), 2 mM CaCl2, 1.2 mM MgSO4, 1 mM ethylene glycol-bis(2-aminoethylether)-N,N,N′,N′-tetraacetic acid, 10 mM LiCl, and 0.5% bovine serum albumin, pH 7.45) and incubated with or without agonist in a final volume of 0.5 ml of IP buffer. After 1-h incubation at 37° C., the reaction was stopped by removing the incubation medium and adding 1 ml of a mixture of ethanol/HCl (2000:1; v/v). One ml of each aliquot was applied to a column containing 1.6 ml of a 1:2 (v/v) Dowex AG-1-X8 anion exchange resin in distilled water. The columns were washed with 4 ml of distilled water, followed by 4 ml of 40 mM HCOONH4, and inositol phosphates were eluted with 4 ml of 1 M HCOONH4. The radioactivity of each eluate was counted after addition of Complete phase combining system solution (Amersham, UK). For the positive control, IMGE-5 cells were incubated with a combination of 30 mM NaF and 10 μM AlCl3 under the same experimental conditions.
Gamide-stimulated inositol phosphate production was measured in COS-7 cells transfected with the CCK-2 receptor. […] Bismuth ions alone had no effect on inositol phosphate production in CCK-2 receptor-transfected COS-7 cells and HT29 cells, even at the highest concentration tested.
We then investigated the role of the individual glutamates in biological activity. The effects of the mutants GamideE7A and GamideE8,9A on inositol phosphate production in COS-7 cells transiently transfected with the CCK-2 receptor were compared.

[2] = tested on: HT29 human colorectal carcinoma cells; experiment: Ggly-stimulated inositol phosphate production in HT29 cells; type: cell-based; conditions: HT29 cells
Method: as §1
Ggly-stimulated inositol phosphate production was measured in HT29 human colorectal carcinoma cells.

CCK-2 receptor [3] = biological target: T1, CCK-2 receptor; experiment: [125I]-BH-CCK8 displacement, CCK-2 receptor on transiently transfected COS-7 cells; type: binding; design: COS-7 cells transiently transfected with CCK-2 receptor cDNA; expressed in transfected cells; host or cells: COS-7; conditions: for % Maximum Binding (COS-7): binding in the absence of competitor, fitted, mean ± S.E.; for Predicted ordinate intercept, FIG. 21: single experiment; for Ratio IC50 mutant/IC50 Gamide: transfected COS-7 cells
Method: (§2) Non-specific binding was evaluated with […] of unlabelled CCK8. Incubation was stopped by adding 2 ml of ice-cold PBS containing 2% bovine serum albumin. After centrifugation, supernatants were removed and the radioactivity bound to the cell membranes was measured in a γ-counter (LKB, Wallac, Finland).
The lines of best fit shown in FIG. 21 were obtained by nonlinear regression to a single site model with the program Sigmaplot.

CCK-2 receptor [4] = biological target: T1, CCK-2 receptor; experiment: [125I]-BH-CCK8 displacement, CCK-2 receptor on Jurkat cells; type: binding; conditions: for Ratio IC50 mutant/IC50 Gamide: T-lymphoblastoid Jurkat cells; for % Maximum Binding (Jurkat): binding in the absence of competitor, fitted, mean ± S.E.
Method: as §2

[5] = Quenching of peptide tryptophan fluorescence by ferric ions (stoichiometry, apparent Kd); type: binding; conditions: pH 4.0; mean ± S.E.; read-out: Kd (μM) of ferric ion binding (amidated gastrin17 and related peptides)
Method: The tryptophan fluorescence of peptide solutions was measured in 3 mL quartz cuvettes thermostated at […], with a Spex Fluorolog-2 spectrofluorimeter (Spex Industries, Edison, N.J.), with the excitation and emission wavelengths set at 290 and 345 nm, respectively. The quenching of tryptophan fluorescence induced by the binding of metal ions was used to calculate the fraction of binding sites occupied, fa: fa=(yf−y)/(yf−yb) where y is the fluorescence signal at a given concentration of metal ions and yb and yf are the signals when the binding sites are fully occupied and unoccupied, respectively (Winzor et al, 1995). The stoichiometry, p, and apparent dissociation constant, Kd, were then obtained, using the program Sigmastat (Jandel Scientific, San Rafael, Calif.), from the intercept and slope of a linear regression of the data transformed as described by Winzor and Sawyer (1995) in terms of the equation Cs/fa=pCa+Kd/(1−fa) where Cs is the total concentration of metal ions, and Ca is the total concentration of glycine-extended gastrin17. For the bismuth binding studies, the data was fitted by non-linear regression with the program Sigmaplot (Jandel Scientific, San Rafael, Calif.) to the equations for models with one binding site or two binding sites with identical affinities: fa=x/(Kd1+x) or to the model with two binding sites with different affinities: fa=(Kd1·x+Kd2·x+2x^2)/2(Kd1·Kd2+Kd1·x+Kd2·x+x^2) where x is the concentration of free metal ions, Kd1 is the first site dissociation constant and Kd2 is the second site dissociation constant. For the one-site model the value of x at any given total concentration of metal ions was obtained by exact solution of the appropriate quadratic (Malby et al, 2001). For the two-site models the value of x was obtained by an iterative Newton-Raphson procedure (Linse et al, 1991). Absorption Spectroscopy
The tryptophan fluorescence of progastrin6-80, glycine-extended gastrin17 and related peptides was measured in the presence of increasing concentrations of ferric ions in 10 mM sodium acetate, pH 4.0, 100 mM NaCl, 0.005% Tween 20. […] Values from the indicated number of independent experiments were combined to obtain the mean values (±S.E.) presented above. No binding of ferric ions to Ggly1-4 or Ggly12-18 was observed.
The tryptophan fluorescence of amidated gastrin17 and related peptides was measured in the presence of increasing concentrations of ferric ions at pH 4.0 (8). Values of the stoichiometry and the apparent dissociation constant (Kd) were obtained from linear transformations of the data presented in FIG. 20A by least squares fitting. Values from the indicated number of independent experiments were combined to obtain the mean values (±S.E.) presented above.

IMGE-5 cells = experiment: IMGE-5 cell proliferation, MTT assay; type: cell-based, mice
Method: The IMGE-5 cell line was established from the gastric mucosa of mice transgenic for a temperature-sensitive mutant of the SV40 large T antigen (Hollande et al, 2001). IMGE-5 cells were generally grown at 33° C. in DMEM containing 1 unit/ml γ-interferon, 10% FBS, 100 U/ml penicillin, and 100 μg/ml streptomycin (permissive conditions). For all experiments, cells were transferred to 39° C. in the same medium without […] (non-permissive conditions), where they display differentiated characteristics such as expression of functional adherens and tight junctions. All experiments have been performed on cells between passages 20 and 35.
A colorimetric assay was used to measure cell proliferation. Briefly, IMGE-5 cells were seeded in a 96-well plate at a density of 10^4 cells/well in DMEM containing 10% FBS and antibiotics. The following day, cells were synchronized in Go by incubation for 24 h in the same medium lacking FBS. The medium was replaced the next day with fresh medium containing 1% FBS and antibiotics and the peptides under investigation, and incubation was continued for 72 h. 15 μl of 5 mg/ml 3-(4,5-dimethylthiazol-2-yl)-2-5-diphenyltetrazolium bromide (MTT, Sigma, St Louis Mo.) was added per well, and the plate was incubated at 37° C. for 4 h before the medium was discarded. 200 μl 40 mM HCl in isopropanol was added to lyse the cells, and the absorbance at 570 nm was read on a BioRad Model 550 Microplate reader (BioRad, Hercules, Calif.).

[6] = pH 4.0; Ref. 8 given in table; read-out: Kd (μM), apparent dissociation constant for ferric ions; cited from earlier work

Compound: Cc1ncc(CO)c(C=NNC(=O)c2ccncc2)c1O [pyridoxal isonicotinoyl hydrazone]
Inhibition of proliferation of hepatoma cell lines in vitro (hepatoma cell lines): effective inhibitors

Compound: Cc1c(O)c(=O)ccn1C [1,2-dimethyl-3-hydroxypyridin-4-one]
Inhibition of proliferation of hepatoma cell lines in vitro (hepatoma cell lines): effective inhibitors

Increase in inositol phosphate production (CCK-2 receptor [1]; COS-7 cells transfected with the CCK-2 receptor, 10 μM AlF4−, 10 nM Gamide): 5 fold
Compound: [F][Al-]([F])([F])[F] [AlF4^−]
Increase in inositol phosphate production [2]: 2.6 fold

Compound: O=C(O)CN(CCN(CC(=O)O)CC(=O)O)CCN(CC(=O)O)CC(=O)O [DTPA, diethylene triamine pentaacetic acid]
Inhibition of proliferation of hepatoma cell lines in vitro (hepatoma cell lines): the best inhibitor of all those tested

% Maximum Binding (COS-7) (CCK-2 receptor [3]): 98.4 ± 2.1% | Predicted ordinate intercept, FIG. 21 (CCK-2 receptor [3]): 91.0% | Ratio IC50 mutant/IC50 Gamide (CCK-2 receptor [3]): 4.1 | Ratio IC50 mutant/IC50 Gamide (CCK-2 receptor [4]): 2.2 | % Maximum Binding (Jurkat) (CCK-2 receptor [4]): 97.8 ± 9.0% | Kd [5]: 0.16 ± 0.06 µM
Compound: CSCC[C@H](NC(=O)[C@H](Cc1c[nH]c2ccccc12)NC(=O)CNC(=O)[C@H](Cc1ccc(O)cc1)NC(=O)[C@H](C)NC(=O)[C@H](CCC(=O)O)NC(=O)[C@H](C)NC(=O)[C@H](C)NC(=O)[C@H](CCC(=O)O)NC(=O)[C@H](CCC(=O)O)NC(=O)[C@H](CC(C)C)NC(=O)[C@H](Cc1c[nH]c2ccccc12)NC(=O)[C@@H]1CCCN1C(=O)CNC(=O)[C@@H]1CCC(=O)N1)C(=O)N[C@@H](CC(=O)O)C(=O)N[C@@H](Cc1ccccc1)C(N)=O [GamideE8, 9A] ([pGlu]GPWLEEAAEAYGWMDF-NH2)
Stimulation of inositol phosphate production (CCK-2 receptor [1]): No significant difference was observed in the extent of stimulation

% Maximum Binding (COS-7) (CCK-2 receptor [3]): 92.0 ± 1.0% | Predicted ordinate intercept, FIG. 21 (CCK-2 receptor [3]): 91.6% | Ratio IC50 mutant/IC50 Gamide (CCK-2 receptor [3]): 1.4 | Ratio IC50 mutant/IC50 Gamide (CCK-2 receptor [4]): 2.4 | % Maximum Binding (Jurkat) (CCK-2 receptor [4]): 96.7 ± 4.6% | Kd [5]: 0.17 ± 0.03 µM
Compound: CSCC[C@H](NC(=O)[C@H](Cc1c[nH]c2ccccc12)NC(=O)CNC(=O)[C@H](Cc1ccc(O)cc1)NC(=O)[C@H](C)NC(=O)[C@H](CCC(=O)O)NC(=O)[C@H](CCC(=O)O)NC(=O)[C@H](CCC(=O)O)NC(=O)[C@H](C)NC(=O)[C@H](CCC(=O)O)NC(=O)[C@H](CC(C)C)NC(=O)[C@H](Cc1c[nH]c2ccccc12)NC(=O)[C@@H]1CCCN1C(=O)CNC(=O)[C@@H]1CCC(=O)N1)C(=O)N[C@@H](CC(=O)O)C(=O)N[C@@H](Cc1ccccc1)C(N)=O [GamideE7A] ([pGlu]GPWLEAEEEAYGWMDF-NH2)
Stimulation of inositol phosphate production (CCK-2 receptor [1]): No significant difference was observed in the extent of stimulation

Compound: O=C(O)CN(CCN(CC(=O)O)CC(=O)O)CC(=O)O [EDTA, ethylene diamine tetraacetic acid]
Inhibition of proliferation of hepatoma cell lines in vitro (hepatoma cell lines): ineffective

Compound: ZGPWLE5A ([pGlu]GPWLEEEEEA; listed as Homo sapiens) [Ggly1-11]
Stimulation of IMGE-5 cell proliferation (IMGE-5 cells; MTT assay, peptides shown at 1 nM (FIGS. 7A, 8A)): did increase proliferation, but to a significantly lesser extent than Ggly | Reduction of activity relative to Ggly (IMGE-5 cells; cell proliferation or wound healing assays (FIG. 7)): approximately 50% | Kd [6]: 1.2 ± 0.04 µM
